Results from PMC8565778, “Evaluation of health benefits of sea lamprey (Petromyzon marinus) isolates using in vitro antiinflammatory and antioxidant assays” (PLoS ONE, 2021).

Tests used:
[1] = biological target: T1, COX-2 (cyclooxygenase enzyme-2) (Homo sapiens, UniProt P35354); assay: biochemical; conditions: read-out: Bioassay results / COX-2 ^a
T1 construct: gene PTGS2
T1 sequence (P35354 18-604): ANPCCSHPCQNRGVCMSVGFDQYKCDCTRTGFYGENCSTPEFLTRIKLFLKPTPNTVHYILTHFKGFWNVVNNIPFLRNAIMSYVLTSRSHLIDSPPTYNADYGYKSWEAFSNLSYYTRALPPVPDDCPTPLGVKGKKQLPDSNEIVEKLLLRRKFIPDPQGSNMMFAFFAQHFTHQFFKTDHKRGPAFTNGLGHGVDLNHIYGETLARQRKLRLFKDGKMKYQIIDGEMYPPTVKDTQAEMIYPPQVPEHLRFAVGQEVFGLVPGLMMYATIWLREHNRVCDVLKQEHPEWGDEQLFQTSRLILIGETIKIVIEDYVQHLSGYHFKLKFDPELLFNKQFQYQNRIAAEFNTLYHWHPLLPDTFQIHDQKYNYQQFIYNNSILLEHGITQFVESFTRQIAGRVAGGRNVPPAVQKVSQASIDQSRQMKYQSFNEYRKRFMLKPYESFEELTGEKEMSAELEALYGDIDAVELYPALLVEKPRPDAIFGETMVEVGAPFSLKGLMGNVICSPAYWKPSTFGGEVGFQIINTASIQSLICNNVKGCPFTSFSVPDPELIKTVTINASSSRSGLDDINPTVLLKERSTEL

[2] = biological target: T2, COX-1 (cyclooxygenase enzyme-1) (Ovis aries, UniProt P05979); assay: biochemical; conditions: read-out: Bioassay results / COX-1^a
T2 construct: gene PTGS1
T2 sequence (P05979 25-600): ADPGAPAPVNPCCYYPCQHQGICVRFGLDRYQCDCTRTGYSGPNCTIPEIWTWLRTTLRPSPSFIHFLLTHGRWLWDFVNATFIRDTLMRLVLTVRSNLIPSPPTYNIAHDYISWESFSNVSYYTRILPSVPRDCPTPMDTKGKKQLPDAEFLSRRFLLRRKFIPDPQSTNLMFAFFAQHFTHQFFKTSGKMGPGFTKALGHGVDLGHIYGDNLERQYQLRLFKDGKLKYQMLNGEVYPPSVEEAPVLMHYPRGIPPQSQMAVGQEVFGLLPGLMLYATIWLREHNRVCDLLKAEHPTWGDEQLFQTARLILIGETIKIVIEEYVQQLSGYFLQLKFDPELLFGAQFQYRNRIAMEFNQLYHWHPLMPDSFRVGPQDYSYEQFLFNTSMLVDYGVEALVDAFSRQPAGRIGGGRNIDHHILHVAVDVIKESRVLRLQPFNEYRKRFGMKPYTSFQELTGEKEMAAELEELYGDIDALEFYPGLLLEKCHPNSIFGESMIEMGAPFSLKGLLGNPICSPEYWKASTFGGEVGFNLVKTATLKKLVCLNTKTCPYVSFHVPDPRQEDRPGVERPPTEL

[3] = biological target: T2, COX-1 (cyclooxygenase enzyme-1); assay: in vitro COX-1 enzyme inhibitory assay, single concentration […]; format: biochemical; conditions: read-out: Bioassay results / COX-1^a
[4] = biological target: T2, COX-1 (cyclooxygenase enzyme-1); assay: biochemical; set-up: In vitro cyclooxygenase (COX-1 and COX-2) enzyme inhibition assay, percent inhibition; conditions: read-out: % inhibition
Procedure: (see S1 File for experimental details). To evaluate the health-beneficial activity of the sea lamprey compounds, we included all isolates of sea lamprey extract for the evaluation of in vitro antiinflammatory and antioxidant activities. […] (S1 File). […] Antiinflammatory activities of arginine, tyrosine, tryptophan, asparagine and inosine were assayed at 50 μg/mL concentration.

[5] = set-up: Fe2+-induced liposome lipid peroxidation; per cent inhibition measured as loss of fluorescent probe signal; conditions: large unilamellar vesicles; LPO (lipid peroxidation of large unilamellar liposomes, Fe2+-initiated); 25 ug/mL; inhibitor
Procedure: Pure compounds and positive controls were assayed for LPO inhibitory activities according to published procedures from our laboratory (see S1 File for experimental details). The antioxidant assay, the lipid peroxidation inhibitory (LPO) assay, used in this study measures free radical scavenging capability of pure compounds and extracts. In this assay, peroxidation of the lipid was initiated by the addition of Fe^2+ resulting in the generation of radicals, which cause the peroxidation of LUV and in turn the fluorescent probes embedded in it. The loss of fluorescent intensity in the assay indicates the oxidative damage to the lipid component of the LUV [11–15, 21] (S1 File). At 25 μg/mL concentration, cholesteryl palmitate, cholesteryl oleate, cholesteryl eicosapentaenoate and cholesteryl arachidonate inhibited LPO by 38, 60, 72 and 82%, respectively (Table 2) (Fig S in S1 File). The most abundant steroidal compound in sea lamprey was cholesterol and it lacked LPO inhibitory activity. Antioxidant activity profiles of the cholesterol esters were like its antiinflammatory profiles. That is, an increase in chain length and unsaturation increased the LPO activity. Majority of the lipophilic fraction of the sea lamprey extract consisted of glycerides and free fatty acids.

[6] = biological target: T1, COX-2 (cyclooxygenase enzyme-2); assay: biochemical; set-up: In vitro cyclooxygenase (COX-1 and COX-2) enzyme inhibition assay, percent inhibition; conditions: read-out: % inhibition

| SMILES | % inhibition [5] [%] | other results |
| --- | --- | --- |
| COc1ccc2cc([C@H](C)C(=O)O)ccc2c1 [compound 3, Naproxen] |  | inhibition at 12 µg/mL [1]: 60.5%; inhibition at 12 µg/mL [2]: 61.4% |
| CC(C)Cc1ccc(C(C)C(=O)O)cc1 (centres unmarked) [compound 4, Ibuprofen] |  | inhibition at 15 µg/mL [3]: 56.4% |
| CC/C=C\C/C=C\C/C=C\C/C=C\C/C=C\CCCC(=O)O[C@H]1CC[C@@]2(C)C(=CC[C@H]3[C@@H]4CC[C@H]([C@H](C)CCCC(C)C)[C@@]4(C)CC[C@@H]32)C1 [compound 10, Cholesteryl eicosapentaenoate] | 72.0 ± 1.4 | inhibition at 25 µg/mL [4]: 63.9 ± 2.1%; inhibition at 25 µg/mL [6]: 58.5 ± 1.7% |
| CCCCC/C=C\C/C=C\C/C=C\C/C=C\CCCC(=O)O[C@H]1CC[C@@]2(C)C(=CC[C@H]3[C@@H]4CC[C@H]([C@H](C)CCCC(C)C)[C@@]4(C)CC[C@@H]32)C1 [compound 11, Cholesteryl arachidonate] | 82.0 ± 1.4 | inhibition at 25 µg/mL [4]: 74.7 ± 0.4%; inhibition at 25 µg/mL [6]: 67.9 ± 2.2% |
| N[C@@H](CS)C(=O)O [compound 30, Cysteine] | 47.0 ± 1.4 |  |
| O=C(O)[C@@H]1CCCN1 [compound 31, Proline] | 17.0 ± 1.4 |  |
| N[C@@H](CO)C(=O)O [compound 32, Serine] | 29.0 ± 1.4 |  |
| N[C@@H](CC(=O)O)C(=O)O [compound 33, Aspartic acid] | 36.5 ± 0.7 |  |
| CN(CC(=O)O)C(=N)N [compound 34, Creatine] | 16.5 ± 0.7 |  |
| O=c1[nH]cnc2c1ncn2[C@@H]1O[C@H](CO)[C@@H](O)[C@H]1O [compound 35, Inosine] | 16.5 ± 2.1 |  |
| Nc1[nH]cnc2ncnc1-2 [compound 36, Adenine] | 19.5 ± 0.7 |  |
| O=c1[nH]c(=O)c2nc[nH]c2[nH]1 [compound 37, Xanthine] | 22.0 ± 1.4 |  |
| O=c1[nH]cnc2nc[nH]c12 [compound 38, Hypoxanthine] | 24.5 ± 0.7 |  |
| NCCCCN [compound 41, Putrescine] | 17.0 ± 1.4 |  |
| NCCCNCCCCNCCCN [compound 42, Spermine] | 16.5 ± 0.7 |  |
| CCCC(=O)C(=O)O [compound 43, α-Ketovaleric acid] | 15.0 ± 1.4 |  |
| CC(C)C(=O)C(=O)O [compound 44, α-Ketoisovaleric acid] | 15.5 ± 0.7 |  |
| CCC(=O)C(=O)O [compound 45, α-Ketobutyric acid] | 16.5 ± 0.7 |  |
| CC(O)CC(=O)O (stereo not drawn) [compound 46, β-Hydroxybutyric acid] | 21.5 ± 0.7 |  |
| CC(=O)C(=O)O [compound 47, Pyruvic acid] | 23.5 ± 0.7 |  |
| O=C(O)C(O)Cc1ccccc1 (centres unmarked) [compound 48, 3-Phenyllactic acid] | 25.0 ± 1.4 |  |
